Bounds are passed on as bounds.

One assay deals with BRAF V660E (Homo sapiens, UniProt P15056, V600E). Nature of the assay: KD BRAF V660E (Table 1; no method described). Format: binding.
For the next assay, the target named is BRAF (Homo sapiens, UniProt P15056). Nature of the assay: KD BRAF (Table 1; no method described). Format: binding.
Assay [1] relates to A375 cells (V600E mutated BRAF), ERK phospho-T202/Y204. As to the kind of experiment: HTRF assay for P-ERK determination in A375 cells (BRAF inhibition). Format: cell-based. The settings on record: Homo sapiens, A-375, 1 hour drug incubation, DMSO = 100%, 10 μM Dabrafenib = 0%, top concentration 10 μM, read-out: P-ERK_A375: IC50. The source says: (§1) A375 is a cellular cancer model expressing V600E mutated BRAF and HCT116 a cellular cancer model expressing WT BRAF. First generation BRAF inhibitors such as e.g. dabrafenib induce a paradox effect on tumour cells in that they inhibit the growth of V600E mutated BRAF cells (such as e.g. A375), while they activate growth in WT BRAF cells (such as e.g. HCT 116). ERK 1,2 phosphorylation (terminal member of the phosphorylation cascade of the MAPK pathway) is hereafter reported as main readout for the activation status of the MAPK pathway. DMEM no-phenol red medium supplemented with L-glutamine was purchased from (Thermo Fisher Scientific). Fetal bovine serum (FBS) was purchased from VWR. Advanced ERK phospho-T202/Y204 kit—10,000 tests was purchased from Cisbio cat #64AERPEH. A375 (catalog #CRL-1619) and HCT116 (catalog #CCL-247) cells were originally obtained from American type Culture Collection (ATCC) and banked by the Roche repository. 384-Well microplates ultized were purchased from Greiner Bio-One, 384-well, (With Lid, HiBase, Low volume cat 784-080).
(§2) HTRF Assay for P-ERK Determination in A375 or HCT116 Cells
(§3) Prior to the assay, A375 and HCT116 cell lines are maintained in DMEM no-phenol red medium supplemented with 10% fetal bovine serum (FBS). Following compound treatment, P-ERK levels are determined by measuring FRET fluorescence signal induced by selective binding of two antibodies provided in the mentioned kit (Cisbio cat #64AERPEH) on ERK protein when phosphorylated at Thr202/Tyr204. Briefly, 8000 cells/well in 12 μl media/well are plated in the 384-well plate and left overnight in the incubator (at 37° C. with 5% CO2-humidified atmosphere), the following day the plate is treated in duplicate with test compounds, dabrafenib and PLX8394 (the latter two as controls) at the following final drug concentrations: 10 μM, 3 μM, 1 μM, 0.3 μM, 0.1 μM, 0.03 μM, 0.01 μM, 0.003 μM and 0.001 μM. All wells are subjected to DMSO normalization and drug incubation occurs for 1 hour. Then, 4 μl of a 4× lysis buffer supplied with the kit are added to the wells, the plate is then centrifuged for 30 second (3000 rpm) and incubated on a plate shaker for 1 h at rt.
(§4) At the end of the incubation 4 μl/well of advanced P-ERK antibody solution (prepared according to manufacturer's instruction) followed by 4 μl/well of criptate P-ERK antibody solution (prepared according to manufacturer's instruction) (Cisbio cat #64AERPEH) are added to test wells.
(§5) In order to allow proper data normalization, control wells non drug treated reported in the following table are always included in each plate (according to manufacturer's instruction):
(§6) The plate is then centrifuged at 3000 rpm for 30 seconds, sealed to prevent evaporation and incubated overnight in the dark at room temperature. The plate is then analyzed and fluorescence emission value collected through a Pherastast FSX (BMG Labtech) apparatus at […]. The obtained fluorescence values are processed according to the formula Ratio=[…]*10000 then the average of the ratio on the blank is subtracted to all values.
Data are normalized in the case of A375 cells (BRAF inhibition) considering the average of the ratio (blank subtracted) derived by DMSO only treated cells as 100% and by considering the average of the ratio (blank subtracted) derived by 10 μM Dabrafenib treated cells as 0%. Mean of the normalized points are fitted with sigmoidal curve and IC50 values are determined.
(Time-resolved FRET reads energy transfer from a long-lived donor to a nearby acceptor.)

In assay [2] the test system is HCT116 cells (WT BRAF), ERK phospho-T202/Y204. As to the kind of experiment: HTRF assay for P-ERK determination in HCT116 cells (BRAF activation, paradox). The assay is classed as cell-based. As to conditions: for EC50: Homo sapiens, HCT-116, HCT116 cells, 1 hour drug incubation, activation relative to maximum Dabrafenib-mediated activation (100%), top concentration 10 μM, read-out: P-ERK_HCT-116: EC50—50PCT; for Fold Selectivity HCT-116 EC50-50/ A375: ratio of P-ERK HCT-116 EC50-50PCT to P-ERK A375 IC50.
From the text: as §1, §2, §3, §4, §5, §6
Data are normalized in the case of HCT116 cells (BRAF activation) considering the average of the ratio (blank subtracted) derived by DMSO only treated cells as 0% and by considering the average of the ratio (blank subtracted) derived by Dabrafenib treated cells at the concentration which provides the highest signal as 100%. Individual points are fitted with either sigmoidal or bell shape curves, the percentage of activation compared to maximum Dabrafenib-mediated activation is determined.

Chain of BRAF (P15056 whole entry): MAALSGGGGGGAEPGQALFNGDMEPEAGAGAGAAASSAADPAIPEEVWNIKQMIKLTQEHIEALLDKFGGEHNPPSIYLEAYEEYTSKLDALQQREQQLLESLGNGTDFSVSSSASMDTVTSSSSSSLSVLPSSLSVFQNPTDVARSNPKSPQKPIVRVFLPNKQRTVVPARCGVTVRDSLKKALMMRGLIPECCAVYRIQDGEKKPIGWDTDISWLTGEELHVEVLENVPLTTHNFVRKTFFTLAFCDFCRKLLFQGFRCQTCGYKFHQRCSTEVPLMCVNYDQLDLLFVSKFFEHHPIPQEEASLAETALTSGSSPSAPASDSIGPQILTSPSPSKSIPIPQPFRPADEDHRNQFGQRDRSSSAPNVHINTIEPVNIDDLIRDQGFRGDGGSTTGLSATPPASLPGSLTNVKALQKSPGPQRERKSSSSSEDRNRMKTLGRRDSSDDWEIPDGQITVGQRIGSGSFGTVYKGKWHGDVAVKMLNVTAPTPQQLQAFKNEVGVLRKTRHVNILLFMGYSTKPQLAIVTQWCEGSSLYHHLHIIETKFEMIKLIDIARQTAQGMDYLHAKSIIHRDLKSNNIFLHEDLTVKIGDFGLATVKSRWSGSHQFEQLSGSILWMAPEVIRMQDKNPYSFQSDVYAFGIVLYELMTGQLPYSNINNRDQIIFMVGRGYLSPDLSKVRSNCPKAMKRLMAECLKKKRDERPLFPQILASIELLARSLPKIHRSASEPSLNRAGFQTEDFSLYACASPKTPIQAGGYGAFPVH
Chain of BRAF V660E (P15056 2-766 V600E): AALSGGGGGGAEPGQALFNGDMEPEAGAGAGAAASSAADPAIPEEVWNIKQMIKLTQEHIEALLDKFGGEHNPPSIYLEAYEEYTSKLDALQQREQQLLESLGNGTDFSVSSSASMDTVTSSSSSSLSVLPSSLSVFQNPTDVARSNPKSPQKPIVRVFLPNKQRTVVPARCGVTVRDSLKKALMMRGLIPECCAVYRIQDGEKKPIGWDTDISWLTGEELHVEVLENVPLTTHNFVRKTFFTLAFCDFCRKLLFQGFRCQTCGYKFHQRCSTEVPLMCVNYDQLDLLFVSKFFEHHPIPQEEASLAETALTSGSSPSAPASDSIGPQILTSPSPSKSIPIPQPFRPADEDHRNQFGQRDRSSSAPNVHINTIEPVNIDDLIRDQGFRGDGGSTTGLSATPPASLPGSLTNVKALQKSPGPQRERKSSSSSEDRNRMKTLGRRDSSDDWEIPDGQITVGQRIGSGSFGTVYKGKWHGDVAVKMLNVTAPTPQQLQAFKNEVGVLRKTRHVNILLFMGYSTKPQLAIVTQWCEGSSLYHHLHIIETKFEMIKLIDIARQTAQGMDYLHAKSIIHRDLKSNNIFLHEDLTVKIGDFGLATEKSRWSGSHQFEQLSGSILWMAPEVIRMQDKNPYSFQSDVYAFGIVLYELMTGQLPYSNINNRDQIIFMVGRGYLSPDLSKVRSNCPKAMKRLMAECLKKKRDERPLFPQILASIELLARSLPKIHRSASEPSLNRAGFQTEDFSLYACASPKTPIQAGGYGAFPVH

For `Cn1c(=O)c(-c2c(F)ccc(NS(=O)(=O)N3CC[C@@H](F)C3)c2F)cc2cnc(NC3CCCC3)nc21` [Example 7, (3R)-N-[3-[2-(cyclopentylamino)-8-methyl-7-oxopyrido[2,3-d]pyrimidin-6-yl]-2,4-difluorophenyl]-3-fluoropyrrolidine-1-sulfonamide], the Kd (commonly the equilibrium constant for the complex coming apart) came to 282 nM on BRAF V660E and 91.2 nM at BRAF. In addition, in assay [1], the IC50 (in general, the concentration needed to halve the response being measured) turned out to be 30.8 nM. The EC50 (commonly the concentration at which the effect is half-maximal) in assay [2] amounted to 2170 nM. In addition, the “Fold Selectivity HCT-116 EC50-50/ A375” value in assay [2] was determined as 70.5.

`Cn1c(=O)c(-c2c(F)ccc(NS(=O)(=O)N3CCCC3)c2F)cc2cnc(NCCC3CCN(C(=O)OC(C)(C)C)CC3)nc21` [Example 8, tert-butyl 4-[2-[[6-[2,6-difluoro-3-(pyrrolidin-1-ylsulfonylamino)phenyl]-8-methyl-7-oxopyrido[2,3-d]pyrimidin-2-yl]amino]ethyl]piperidine-1-carboxylate] returned a Kd at BRAF V660E of 314 nM. This compound had a Kd on BRAF of 261 nM. Moreover, the concentration for half-maximal inhibition (IC50) in assay [1] was 241 nM. Further, in assay [2], the EC50 was determined as 9760 nM and the “Fold Selectivity HCT-116 EC50-50/ A375” value is reported as 40.5.

Turning to `CCN(C)S(=O)(=O)Nc1ccc(F)c(-c2cc3cnc(NCCOCCOCCO)nc3n(C)c2=O)c1F` [Example 9, 6-[3-[[ethyl(methyl)sulfamoyl]amino]-2,6-difluorophenyl]-2-[2-[2-(2-hydroxyethoxy)ethoxy]ethylamino]-8-methyl-7-oxopyrido[2,3-d]pyrimidine], the Kd on BRAF V660E was 417 nM. The Kd at BRAF is 136 nM. In addition, the IC50 in assay [1] is 153 nM. In assay [2], the 50% effective concentration (EC50) was at least 10000 nM and the “Fold Selectivity HCT-116 EC50-50/ A375” value was above 65.4.

As to `Cn1c(=O)c(-c2c(F)ccc(NS(=O)(=O)N3CC[C@@H](F)C3)c2F)cc2cnc(NCC3CC3)nc21` [Example 10, (3R)-N-[3-[2-(cyclopropylmethylamino)-8-methyl-7-oxopyrido[2,3-d]pyrimidin-6-yl]-2,4-difluorophenyl]-3-fluoropyrrolidine-1-sulfonamide], the Kd on BRAF V660E stood at 37.5 nM. The same compound yielded a Kd at BRAF of 19 nM. Also, in assay [1], the IC50 was determined as 9.9 nM. Moreover, in assay [2], the EC50 stood at 645 nM and the “Fold Selectivity HCT-116 EC50-50/ A375” value stood at 65.1.

Take `CCN(C)S(=O)(=O)Nc1ccc(F)c(-c2cc3cnc(NCC4CC4)nc3n(C)c2=O)c1F` [Example 11, 2-(cyclopropylmethylamino)-6-[3-[[ethyl(methyl)sulfamoyl]amino]-2,6-difluorophenyl]-8-methyl-7-oxopyrido[2,3-d]pyrimidine]: on BRAF V660E, the affinity, expressed as Kd, was 441 nM. The compound further had a Kd at BRAF of 159 nM. In assay [1], the IC50 is 71 nM. Also, in assay [2], the EC50 is at least 10000 nM and the “Fold Selectivity HCT-116 EC50-50/ A375” value is on record as above 140.9.

For the compound `CN(C1CC1)S(=O)(=O)Nc1ccc(F)c(-c2cc3cnc(NCC4CC4)nc3n(C)c2=O)c1F` [Example 12, 2-(cyclopropylmethylamino)-6-[3-[[cyclopropyl(methyl)sulfamoyl]amino]-2,6-difluorophenyl]-8-methyl-7-oxopyrido[2,3-d]pyrimidine], the Kd on BRAF V660E turned out to be 487 nM; at BRAF it was 84.9 nM. Further, the IC50 in assay [1] was found to be 109 nM. The EC50 in assay [2] is 2220 nM. Also, the “Fold Selectivity HCT-116 EC50-50/ A375” value in assay [2] turned out to be 20.4.

`Cn1c(=O)c(-c2c(F)ccc(NS(=O)(=O)C3CCCC3)c2F)cc2cnc(NCCC3CCN(C(=O)OC(C)(C)C)CC3)nc21` [Example 13, tert-butyl 4-[2-[[6-[3-(cyclopentylsulfonylamino)-2,6-difluorophenyl]-8-methyl-7-oxopyrido[2,3-d]pyrimidin-2-yl]amino]ethyl]piperidine-1-carboxylate] returned a Kd on BRAF V660E of 440 nM. The Kd at BRAF worked out at 350 nM. In assay [1], the IC50 came to 272 nM. Besides, in assay [2], the concentration for a half-maximal effect (EC50) came out at 9460 nM and the “Fold Selectivity HCT-116 EC50-50/ A375” value was 34.7.

On to `Cl.Cn1c(=O)c(-c2c(F)ccc(NS(=O)(=O)N3CC[C@@H](F)C3)c2F)cc2cnc(NCCC3CCNCC3)nc21` [Example 14, (3R)—N-[2,4-difluoro-3-[8-methyl-7-oxo-2-(2-piperidin-4-ylethylamino)pyrido[2,3-d]pyrimidin-6-yl]phenyl]-3-fluoropyrrolidine-1-sulfonamide hydrochloride], for which the Kd is 107 nM on BRAF V660E and 37.7 nM at BRAF. Besides, in assay [1], the IC50 was 790 nM. The EC50 in assay [2] is at least 10000 nM. Also, the “Fold Selectivity HCT-116 EC50-50/ A375” value in assay [2] was found to be 12.7.

Consider `Cl.Cn1c(=O)c(-c2c(F)ccc(NS(=O)(=O)N3CC[C@@H](F)C3)c2F)cc2cnc(NCCOCCN)nc21` [Example 15, (3R)-N-[3-[2-[2-(2-aminoethoxy)ethylamino]-8-methyl-7-oxopyrido[2,3-d]pyrimidin-6-yl]-2,4-difluorophenyl]-3-fluoropyrrolidine-1-sulfonamide hydrochloride], for which the Kd at BRAF V660E was 194 nM; on BRAF it was 81.7 nM. Moreover, in assay [1], the IC50 was 617 nM. Also, in assay [2], the EC50 is at least 10000 nM. Also, the “Fold Selectivity HCT-116 EC50-50/ A375” value in assay [2] worked out at 16.2.

Regarding `CNCCCNc1ncc2cc(-c3c(F)ccc(NS(=O)(=O)N4CC[C@@H](F)C4)c3F)c(=O)n(C)c2n1.Cl` [Example 16, (3R)-N-[2,4-difluoro-3-[8-methyl-2-[3-(methylamino)propylamino]-7-oxopyrido[2,3-d]pyrimidin-6-yl]phenyl]-3-fluoropyrrolidine-1-sulfonamide hydrochloride], the Kd on BRAF V660E was 296 nM. In addition, binding at BRAF was characterised by a dissociation constant (Kd) of 148 nM. Further, in assay [1], the concentration for half-maximal inhibition (IC50) is 687 nM. In addition, in assay [2], the EC50 was at least 10000 nM and the “Fold Selectivity HCT-116 EC50-50/ A375” value stood at 14.6.

Compound `CCN(C)S(=O)(=O)Nc1ccc(F)c(-c2cc3cnc(NCCCNC)nc3n(C)c2=O)c1F.Cl` [Example 17, 6-[3-[[ethyl(methyl)sulfamoyl]amino]-2,6-difluorophenyl]-8-methyl-2-[3-(methylamino)propylamino]-7-oxopyrido[2,3-d]pyrimidine hydrochloride] showed a Kd on BRAF V660E of 385 nM. On BRAF, the Kd came to 168 nM. In addition, the IC50 in assay [1] was determined as 1260 nM. In assay [2], the EC50 is 7520 nM and the “Fold Selectivity HCT-116 EC50-50/ A375” value was found to be 6.0.

Take `Cl.Cn1c(=O)c(-c2c(F)ccc(NS(=O)(=O)N3CC[C@@H](F)C3)c2F)cc2cnc(NCCCC3CCNCC3)nc21` [Example 18, (3R)-N-[2,4-difluoro-3-[8-methyl-7-oxo-2-(3-piperidin-4-ylpropylamino)pyrido[2,3-d]pyrimidin-6-yl]phenyl]-3-fluoropyrrolidine-1-sulfonamide hydrochloride]: the Kd at BRAF V660E came out at 71.6 nM. Besides, the Kd at BRAF was found to be 25.5 nM. Further, the IC50 in assay [1] worked out at 207 nM. In assay [2], the EC50 was 5870 nM and the “Fold Selectivity HCT-116 EC50-50/ A375” value was found to be 28.3.

Source of the values: patent US20230322776A1, “NEW ARYL-PYRIDO-PYRIMIDIN-ONE DERIVATIVES” (Hoffmann-La Roche Inc., priority 2020, published 2023).
